Data on 1 compound can be found in ChEMBL document CHEMBL4402592, “Targeting Endoplasmic Reticulum α-Glucosidase I with a Single-Dose Iminosugar Treatment Protects against Lethal Influenza and Dengue Virus Infections” (J Med Chem, 2020).

Structures are written as SMILES. Calls of active or inactive are those of the source. No cut-off for these calls is given here.

The experiment deals with Influenza A virus. Nature of the experiment: Antiviral activity against Influenza A virus (A/PA/10/2010 (H3N2)) infected in BALB/c mouse assessed as increase in animal survival rate at 10 mg/kg, po administered via gavage starting at 8 hrs post infection and continuing BID for 6 days. In kind it is functional, organism-based.

Regarding `CCOC(=O)C1=C[C@@H](OC(CC)CC)[C@H](NC(C)=O)[C@@H](N)C1`, the outcome was Active.
